{
  "source": "ChEMBL document CHEMBL1146086",
  "about": "“Design, synthesis, and evaluation of near infrared fluorescent multimeric RGD peptides for targeting tumors” (J Med Chem, 2006)",
  "molecular_target": "Integrin alpha-V/beta-3 (Homo sapiens, UniProt P05106+P06756)",
  "sequence (P05106 27-788 limits assumed)": "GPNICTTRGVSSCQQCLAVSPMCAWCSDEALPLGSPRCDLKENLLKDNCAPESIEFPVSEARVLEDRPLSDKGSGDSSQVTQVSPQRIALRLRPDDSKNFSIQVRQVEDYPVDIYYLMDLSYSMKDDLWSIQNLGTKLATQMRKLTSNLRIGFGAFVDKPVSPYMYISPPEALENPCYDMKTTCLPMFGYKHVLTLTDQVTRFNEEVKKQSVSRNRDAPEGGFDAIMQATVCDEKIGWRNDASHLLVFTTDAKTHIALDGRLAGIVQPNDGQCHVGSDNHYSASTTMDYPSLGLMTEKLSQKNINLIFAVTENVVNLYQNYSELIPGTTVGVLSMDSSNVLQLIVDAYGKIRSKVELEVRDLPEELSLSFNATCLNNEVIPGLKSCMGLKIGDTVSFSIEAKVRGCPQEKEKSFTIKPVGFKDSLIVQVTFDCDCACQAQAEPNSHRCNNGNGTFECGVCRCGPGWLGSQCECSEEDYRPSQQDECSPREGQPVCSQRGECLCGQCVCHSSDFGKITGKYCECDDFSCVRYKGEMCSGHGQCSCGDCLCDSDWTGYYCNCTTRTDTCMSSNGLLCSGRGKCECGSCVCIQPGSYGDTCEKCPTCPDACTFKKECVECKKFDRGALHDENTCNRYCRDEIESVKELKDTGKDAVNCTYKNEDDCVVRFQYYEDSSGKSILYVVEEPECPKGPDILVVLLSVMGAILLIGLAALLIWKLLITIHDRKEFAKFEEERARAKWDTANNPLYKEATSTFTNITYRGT",
  "sequence (P06756 31-889 limits assumed)": "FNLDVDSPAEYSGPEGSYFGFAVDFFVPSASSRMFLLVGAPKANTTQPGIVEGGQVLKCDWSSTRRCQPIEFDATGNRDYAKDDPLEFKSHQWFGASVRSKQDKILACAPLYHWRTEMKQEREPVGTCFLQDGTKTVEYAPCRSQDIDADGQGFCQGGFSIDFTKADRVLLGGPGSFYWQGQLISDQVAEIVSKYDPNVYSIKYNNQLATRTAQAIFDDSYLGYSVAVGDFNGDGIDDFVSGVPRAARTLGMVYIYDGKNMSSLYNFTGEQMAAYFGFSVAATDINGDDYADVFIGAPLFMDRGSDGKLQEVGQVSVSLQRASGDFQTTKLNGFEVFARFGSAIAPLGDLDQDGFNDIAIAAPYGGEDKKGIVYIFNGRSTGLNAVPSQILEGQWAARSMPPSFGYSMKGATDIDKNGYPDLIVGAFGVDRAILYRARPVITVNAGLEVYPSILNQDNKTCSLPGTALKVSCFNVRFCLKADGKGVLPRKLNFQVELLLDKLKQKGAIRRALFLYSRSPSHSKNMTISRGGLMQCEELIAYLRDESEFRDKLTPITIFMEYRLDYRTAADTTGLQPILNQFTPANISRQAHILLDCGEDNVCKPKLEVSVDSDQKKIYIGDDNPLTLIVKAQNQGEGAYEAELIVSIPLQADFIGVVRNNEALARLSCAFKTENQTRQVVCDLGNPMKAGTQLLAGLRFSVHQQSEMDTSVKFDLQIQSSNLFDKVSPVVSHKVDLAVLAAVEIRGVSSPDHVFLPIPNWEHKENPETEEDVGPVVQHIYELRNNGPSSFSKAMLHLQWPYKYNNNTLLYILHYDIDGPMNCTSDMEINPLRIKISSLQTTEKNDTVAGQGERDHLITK",
  "sequence (P06756 891-1048 limits assumed)": "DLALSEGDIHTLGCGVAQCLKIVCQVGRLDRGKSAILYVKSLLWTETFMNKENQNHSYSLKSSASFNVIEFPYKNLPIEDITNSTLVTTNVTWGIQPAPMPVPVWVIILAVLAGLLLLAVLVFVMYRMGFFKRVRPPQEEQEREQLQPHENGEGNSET",
  "assay": "Displacement of [125I]echistatin from AlphaV-beta-3 integrin receptor",
  "assay_type": "protein-complex assay",
  "note": "Numbered stars: 1 amine (or outer) side, 2 acyl side, 3 side chain; on linkers, the order of the positions; unused ones are H or OH. Bridge positions count the residues as written; N and C are the ends. Peptide text beside a SMILES is read from it. I, II: the chains in the order shown. * marks the point of attachment. X2 = CC1(C)C(/C=C/C=C/C=C/C=C2/N(CCC(=O)[*:1])c3ccc4ccccc4c3C2(C)C)=[N+](CCC(=O)[*:2])c2ccc3ccccc3c21; X1 = CC1(C)C(/C=C/C=C/C=C/C=C2/N(CCC(=O)[*:1])c3ccc4ccccc4c3C2(C)C)=[N+](CC(=O)[*:2])c2ccc3ccccc3c21; Cypate = CC1(C)C(/C=C/C=C/C=C/C=C2/N(CCC(=O)*)c3ccc4ccccc4c3C2(C)C)=[N+](CCC(=O)O)c2ccc3ccccc3c21; X3 = CC1(C)C(/C=C/C=C/C=C/C=C2/N(CCC(=O)O)c3ccc4ccccc4c3C2(C)C)=[N+](CC(=O)*)c2ccc3ccccc3c21",
  "data": [
    {"smiles": "CC1(C)C(/C=C/C=C/C=C/C=C2/N(CCC(=O)NCCCC[C@@H]3NC(=O)[C@@H](Cc4ccccc4)NC(=O)[C@H](CC(=O)O)NC(=O)CNC(=O)[C@H](CCCNC(=N)N)NC3=O)c3ccc4ccccc4c3C2(C)C)=[N+](CCC(=O)O)c2ccc3ccccc3c21", "values": [
      {"measurement": "IC50", "result": 63.9, "unit": "nM"}
    ]},
    {"smiles": "CC1(C)C(/C=C/C=C/C=C/C=C2/N(CCC(=O)N[C@@H](CCCN=C(N)N)C(=O)NCC(=O)N[C@@H](CC(=O)O)C(=O)N[C@@H](CCCN=C(N)N)C(=O)NCC(=O)N[C@@H](CC(=O)O)C(N)=O)c3ccc4ccccc4c3C2(C)C)=[N+](CC(=O)N[C@@H](CCCN=C(N)N)C(=O)NCC(=O)N[C@@H](CC(=O)O)C(=O)N[C@@H](CCCN=C(N)N)C(=O)NCC(=O)N[C@@H](CC(=O)O)C(N)=O)c2ccc3ccccc3c21", "values": [
      {"measurement": "IC50", "result": 104, "unit": "nM"}
    ]},
    {"smiles": "CC1(C)C(/C=C/C=C/C=C/C=C2/N(CCC(=O)O)c3ccc4ccccc4c3C2(C)C)=[N+](CC(=O)N[C@@H](CCCN=C(N)N)C(=O)NCC(=O)N[C@@H](CC(=O)O)C(=O)N[C@@H](CCCN=C(N)N)C(=O)NCC(=O)N[C@@H](CC(=O)O)C(N)=O)c2ccc3ccccc3c21", "values": [
      {"measurement": "IC50", "result": 730, "unit": "nM"}
    ]},
    {"smiles": "CC1(C)C(/C=C/C=C/C=C/C=C2/N(CCC(=O)N[C@@H](CCCN=C(N)N)C(=O)NCC(=O)N[C@@H](CC(=O)O)C(=O)N[C@@H](CCCN=C(N)N)C(=O)NCC(=O)N[C@@H](CC(=O)O)C(=O)N[C@@H](CCCN=C(N)N)C(=O)NCC(=O)N[C@@H](CC(=O)O)C(=O)N[C@@H](CCCN=C(N)N)C(=O)NCC(=O)N[C@@H](CC(=O)O)C(N)=O)c3ccc4ccccc4c3C2(C)C)=[N+](CCC(=O)O)c2ccc3ccccc3c21", "note": "(Cypate-RGDRGDRGDRGD-NH2)", "values": [
      {"measurement": "IC50", "result": 259, "unit": "nM"}
    ]},
    {"smiles": "CC1(C)C(/C=C/C=C/C=C/C=C2/N(CCC(=O)N[C@@H](CCCN=C(N)N)C(=O)NCC(=O)N[C@@H](CC(=O)O)C(=O)N[C@@H](CCCN=C(N)N)C(=O)NCC(=O)N[C@@H](CC(=O)O)C(=O)N[C@@H](CCCN=C(N)N)C(=O)NCC(=O)N[C@@H](CC(=O)O)C(N)=O)c3ccc4ccccc4c3C2(C)C)=[N+](CC(=O)N[C@@H](CCCN=C(N)N)C(=O)NCC(=O)N[C@@H](CC(=O)O)C(=O)N[C@@H](CCCN=C(N)N)C(=O)NCC(=O)N[C@@H](CC(=O)O)C(=O)N[C@@H](CCCN=C(N)N)C(=O)NCC(=O)N[C@@H](CC(=O)O)C(N)=O)c2ccc3ccccc3c21", "note": "(I: RGDRGDRGD-NH2 / II: RGDRGDRGD-NH2; linker I:N-II:N via X1)", "values": [
      {"measurement": "IC50", "result": 132, "unit": "nM"}
    ]},
    {"smiles": "CC1(C)C(/C=C/C=C/C=C/C=C2/N(CCC(=O)N[C@@H](CCCN=C(N)N)C(=O)NCC(=O)N[C@@H](CC(=O)O)C(=O)N[C@@H](CCCN=C(N)N)C(=O)NCC(=O)N[C@@H](CC(=O)O)C(=O)N[C@@H](CCCN=C(N)N)C(=O)NCC(=O)N[C@@H](CC(=O)O)C(=O)N[C@@H](CCCN=C(N)N)C(=O)NCC(=O)N[C@@H](CC(=O)O)C(N)=O)c3ccc4ccccc4c3C2(C)C)=[N+](CCC(=O)N[C@@H](CCCN=C(N)N)C(=O)NCC(=O)N[C@@H](CC(=O)O)C(=O)N[C@@H](CCCN=C(N)N)C(=O)NCC(=O)N[C@@H](CC(=O)O)C(=O)N[C@@H](CCCN=C(N)N)C(=O)NCC(=O)N[C@@H](CC(=O)O)C(=O)N[C@@H](CCCN=C(N)N)C(=O)NCC(=O)N[C@@H](CC(=O)O)C(N)=O)c2ccc3ccccc3c21", "note": "(I: RGDRGDRGDRGD-NH2 / II: RGDRGDRGDRGD-NH2; linker I:N-II:N via X2)", "values": [
      {"measurement": "IC50", "result": 79.6, "unit": "nM"}
    ]},
    {"smiles": "CC1(C)C(/C=C/C=C/C=C/C=C2/N(CCC(=O)O)c3ccc4ccccc4c3C2(C)C)=[N+](CC(=O)N[C@@H](CCCN=C(N)N)C(=O)NCC(=O)N[C@@H](CC(=O)O)C(=O)N[C@@H](CCCN=C(N)N)C(=O)NCC(=O)N[C@@H](CC(=O)O)C(=O)N[C@@H](CCCN=C(N)N)C(=O)NCC(=O)N[C@@H](CC(=O)O)C(N)=O)c2ccc3ccccc3c21", "note": "(X3-RGDRGDRGD-NH2)", "values": [
      {"measurement": "IC50", "result": 481, "unit": "nM"}
    ]}
  ]
}
